# Test results reported in patent EP0831877B1, “METABOLIC EFFECTS OF CERTAIN GLUTATHIONE ANALOGS” (TELIK, INC., priority 1995, dated 1996).
# “And” between values parts separate entries of the source, which are not always exact repeats. Identical values can stand only once. Like-named read-outs stand apart in the source and are kept apart here. Marks after values point to notes of the source that are not given here.
# Columns and labels:
# [1] = system: HT4-1 tumors; experiment: potentiation of melphalan toxicity in vivo, implanted HT4-1 tumors; parameters: species or system Male scid mice; settings: group 5: 5 mg/kg melphalan + 60 mg/kg TER199, seven days; when control tumors reached 1500 mm^3
# Experimental: Male scid mice were subcutaneously implanted with HT4-1 tumors from donor mice. HT4-1 is a subclone of HT-29, a human colon cancer. When tumors reached approximately 100 mm^3, the mice were randomized into six treatment groups and treated for seven days as follows: • 1. 5 mg/kg melphalan; • 2. 10 mg/kg ethacrynic acid; • 3. […] 5 mg/kg melphalan + 10 mg/kg ethacrynic acid; • 5.
# The mice were monitored for weight changes and tumor volumes were determined by measurement with calipers. The tumor growth was monitored until the average tumor size reached 1500 mm^3 for all groups except melphalan with ethacrynic acid.
# The results were computed in terms of the tumor volume in the drug treated mice as a percentage of control tumor volume (i.e., in the group administered vehicle alone). In group 1, administered melphalan alone, the tumors were approximately 75% of the volume of controls. […] For group 4 administered a combination of melphalan and ethacrynic acid, the volumes were approximately 35% of control. […] (The volume measurements were taken at the time control tumors reached 1500 mm^3.)
# [2] = system: bone marrow GM-CFU; experiment: carboplatin-induced GM-CFU suppression in mice; assay type: in vivo; settings: TER199 120mg/kg, i.p., carboplatin 90 mg/kg
# Experimental: (§1) Bone marrows were harvested 24 hours after administration of the second drug.
# [3] = system: bone marrow GM-CFU
# Experimental: Bone marrows were harvested 24 hours after cisplatin administration.
# as §1
# [4] = system: interleukin-1 (IL-1); experiment: stimulation of cytokine production in bone marrow stromal cell cultures; assay type: cell-based, human; settings: 100µM TER199 for one hour
# Experimental: Human stromal cell cultures were established from freshly obtained human bone marrow as described by East, C.J. et al., Blood 5:1172 (1992). […] IL-1 levels were more than twice those of controls at both 24 and 48 hour time points.
# [5] = system: VLB, a vinblastine-resistant variant of SKOV-3; experiment: standard clonogenic assay, potentiation of drug toxicity, VLB; assay type: cell-based
# Experimental: ; SKOV-3 an ovarian carcinoma, and VLB, a vinblastine-resistant variant of SKOV-3. Four chemotherapeutic drugs, chlorambucil, adriamycin, mitomycin C and doxorubicin were used as the toxic agents. In these assays, the cells were seeded at 300 cells/well in 2 ml of medium in 6-well plates in the presence of the compounds used in the invention as the diethyl esters. […]. After incubation for 1-2 hours to permit cells to attach, varying doses of the chemotherapeutic agents were added. At least three replicate wells were plated for each test condition and the plates were incubated for two weeks. Colonies were fixed in 95% ethanol and stained with crystal violet for colony counting. IC50 values were determined for the chemotherapeutic agent in the presence or absence of the compound used in the invention and dose modification factors were calculated by dividing the IC50 value of drug without the compound by the IC50 value of the drug with the compound.
# [6] = system: bone marrow GM-CFU; settings: TER199 90 mg/kg i.p. 1 hour prior to melphalan 10 mg/kg i.p.
# [7] = in vitro half-life / metabolism in mouse blood; assay type: in vitro ADME
# [8] = system: bone marrow GM-CFU; experiment: stimulation of bone marrow GM-CFU after administration to mice; assay type: in vivo, B6D2F1 mice; settings: for most effective dose on bone marrow GM-CFU (Figure 4a): single treatment, harvest 24 hours
# Experimental: In an illustrative assay three B6D2F1 mice were treated with various doses of benzyl PG intraperitoneally.
# Mice in the control group were injected with water or saline. Bone marrow cells were harvested 24 hours after drug treatment and added to alpha minimum essential medium (alpha MEM) supplemented with methylcellulose (0.8% w/v), fetal bovine serum (20% v/v), deionized BSA (1% w/v), Pokeweed mitogen-stimulated spleen-cell conditioned medium (PWM-SCCM)^1 (10% v/v) and gentamycin (50 Tg/ml). One ml aliquots were plated (four replicate plates) and incubated for seven days at 37 °C. […] Spleens were removed aseptically from four male B6D2F1 mice enforced through a 200 Tm wire mesh screen to obtain a single cell suspension. Ten ml of the suspension (2-4 X 10^7 cell/ml was added to 90 ml alpha-MEM supplemented with 1% deionized BSA, 50 Tg/ml gentamicin, 0.3% freshly reconstituted pokeweed antigen, 10 µM 2-mercaptoethanol. The mixture was incubated for 5 days at […] in a 5% CO2 atmosphere and the result-ing conditioned medium was centrifuged at 800g for ten minutes and filtered through a 0.22 Tm filter. Aliquots were kept frozen at […] until use.
# Bone marrow was harvested 24 hours after administering the compounds and GM-CFU levels measured as described above.
# [9] = system: peripheral blood cells; experiment: peripheral blood response to 5-FU with oral TER199 in mice; assay type: in vivo; settings: 150 mg/kg 5-FU IP, 24 hours later oral 150 mg/kg TER199, versus 5-FU alone
# Experimental: The mice were bled through the retroorbital plexus and the blood samples were analyzed for changes in blood counts.
# [10] = system: HT4-1, a subclone of HT-29; experiment: standard clonogenic assay, potentiation of drug toxicity, HT4-1
# Experimental: Four chemotherapeutic drugs, chlorambucil, adriamycin, mitomycin C and doxorubicin were used as the toxic agents. In these assays, the cells were seeded at 300 cells/well in 2 ml of medium in 6-well plates in the presence of the compounds used in the invention as the diethyl esters. […] After incubation for 1-2 hours to permit cells to attach, varying doses of the chemotherapeutic agents were added. At least three replicate wells were plated for each test condition and the plates were incubated for two weeks. […] IC50 values were determined for the chemotherapeutic agent in the presence or absence of the compound used in the invention and dose modification factors were calculated by dividing the IC50 value of drug without the compound by the IC50 value of the drug with the compound.
# [11] = system: normal human bone marrow multipotential (CFU-GEMM) progenitor cells; experiment: colony formation, human bone marrow CFU-GEMM; assay type: cell-based; settings: EPO + 50 ng/ml SLF
# Experimental: The effects are dose-dependent, usually in the range of 1.0 to 10.0 µM, and in most cases for cells stimulated by GM-CSF, G-CSF, M-CSF, Flt3/Flk-2 and Steel factor (stem cell factor/c-kit ligand). Of particular interest was the finding that TER199 enhances colony formation stimulated by combinations of cytokines. Additionally, the enhancing effect is more pronounced in human than in murine bone marrow.
# [12] = TER199 150 mg/kg p.o. 24 hours after cisplatin 20 mg/kg i.p.
# [13] = HT4-1, TER199 at 25 µM, TER183 dose not given
smiles,measurement,setting,value
"CCOC(=O)[C@@H](N)CCC(=O)N[C@@H](CSCc1ccccc1)C(=O)N[C@@H](C(=O)OCC)c1ccccc1 [TER199, γE ethyl ester-C(Bz)-R-(-)-ϕG ethyl ester]",tumor volume as a percentage of control tumor volume,[1],approximately 55%
same,"carboplatin-induced GM-CFU suppression (Figure 12, panel A)",[2],reduces carboplatin-induced GM-CFU suppression
same,GM-CFUs per femur,[3]; TER199 60 mg/kg i.p. 24 hours before cisplatin 15 mg/kg i.p.,62 % of control
same,GM-CFU,[3]; [12],40%
same,increase in GM-CFU versus cisplatin alone,[3]; [12],2.5 fold
same,GM-CFU,[3]; TER199 150 mg/kg p.o. 24 hours before cisplatin 20 mg/kg i.p.,52 % of control
same,IL-1 concentration,[4]; 24 Hours,323 pg/mL
same,IL-1 concentration (% control),[4]; 24 Hours,283 % control
same,IL-1 concentration,[4]; 48 Hours,245 pg/mL
same,IL-1 concentration (% control),[4]; 48 Hours,253 % control
same,DMF for Mitomycin C,[5]; 5 µM TER199,0.82 (5 µM TER199)^c
same,DMF for Doxorubicin,[5]; TER199 at 25 µM,2.50
same,DMF for Adriamycin,"[5]; TER199 at 25 µM, TER183 dose not given",2.50
same,GM-CFU,[6],8 % of control value
same,half-life,[7],< 1 min
same,GM-CFU,"[8]; 90 mg/kg intraperitoneally, marrow harvested 24 hours later, controls about 140",approximately 275 colonies/10^4 nucleated cells
same,most effective dose on bone marrow GM-CFU (Figure 4a),[8]; IP administration,60 to 90 mg/kg
same,"effect on GM-CFU as a function of dosage, ester/amide forms (Figure 7)",[8]; bone marrow harvested 24 hours after administering,significantly more effective than the mixed ester amide (TER300)
same,most effective dose on bone marrow GM-CFU (Figure 4a),[8]; oral administration,120 to 180 mg/kg
same,time of maximum stimulation of GM-CFU (Figure 5),[8]; single 60 mg/kg dose IP on day 0,day 2 and day 5
same,lymphocytes (Figure 15c),[9],no differences were found
same,monocytes (Figure 15d),[9],statistically significant difference only on day 9
same,neutrophils (Figure 15b),[9],statistically significant difference was obtained only on day 9
same,total white cell counts (Figure 15a),[9],essentially no significant difference
same,survival of tumor cells treated with varying dosages of chlorambucil (Figure 1a),[10]; 25 µM compound added to chlorambucil,survival rate is markedly diminished
same,DMF for Doxorubicin,"[10]; HT4-1, TER199 at 25 µM",1.20
same,DMF for Adriamycin,[10]; [13],1.2
same,DMF for Chlorambucil,[10]; [13],2.39
same,DMF for Mitomycin C,[10]; [13],1.03
same,survival of HT4-1 cells in the presence of the compound alone (Figure 1b),[10]; HT4-1 cells,clearly toxic
same,Colony number,[11]; TER199 0.1 µM,12±1 and 19±2
same,Colony number,[11]; TER199 1.0 µM,17±2 and 23±2
same,% change from control,[11]; TER199 10 µM,60% and 36%
same,Colony number,[11]; TER199 10 µM,16±1 and 30±1
